Legend:
[1] = target: T1, recombinant Val122Ile TTR (Homo sapiens, UniProt P02766, V142I); assay: Mechano-enzymatic fibrillogenesis, TTR amyloid by ThT emission fluorescence; format: biochemical; conditions: equimolar ligand, 96 h pellets, normalized to 100 % without ligand, mean (SD)
T1 construct: the non-covalently associated protomers, of mass 13,761, each contain 127 residues; His6 (N); TEV cleavage site (N); made in house; host or cells: E. coli BL21 (DE3)
Experimental: (§1) Briefly, fibrillogenesis of recombinant Val122Ile TTR at 0.5 mg/ml (9 μM) in PBS, pH 7.4 was carried out in glass vials stirred at 1,400 rpm (IKA magnetic stirrer) and 37° C. in the presence and in the absence of trypsin (5 ng/μl). […] Each ligand was tested at 4 different concentrations (4.5, 9, 18, 36 μM respectively) corresponding to the following drug/TTR molar ratios of 0.5:1, 1:1, 2:1 and 4:1. Several dilutions of the drug stock solutions were made in order to add the same volume of DMSO to each sample. Control samples without drug were added with the same volume of DMSO only. To allow complete binding of ligand by TTR each sample was incubated for 30 min at 37° C. before addition of trypsin. Spectrophotometric turbidity at 400 nm was used to monitor fibril formation over time until it reached a plateau at 96 h. Aggregation of TTR in the presence of equimolar ligand concentrations was quantified as spectrophotometric turbidity at 400 nm as a proportion of 100% for aggregation of the protein in the absence of ligands (Table 2).
At the end of the 96 h aggregation, pellets were harvested from each protein sample by 20 min centrifugation at 11,600 g, thoroughly rinsed with PBS to remove non-bound ligand, resuspended with 100 μl PBS, pH 7.4 containing 10 μM ThT in Costar 96-well black-wall plates. Bottom fluorescence values (excitation 440 nm, emission 480 nm) were recorded using a BMG LABTECH FLUostar Omega plate reader. Each value was normalized to the ThT signal of the TTR sample without ligand (Table 2)

isolated wild type TTR = target: T2, isolated wild type TTR (Homo sapiens, UniProt P02766); assay: Displacement of 125I-T4 from isolated wild type TTR in buffer; conditions: concentration of ligand reducing binding of 125I-T4 by TTR by 50%, 125 nM TTR, pH 8.0, overnight 4° C., mean of at least 3 replicates; for IC50: read-out: D50 buffer
T2 construct: the non-covalently associated protomers, of mass 13,761, each contain 127 residues; His6 (N); TEV cleavage site (N); made in house; host or cells: E. coli BL21 (DE3)
Experimental: 3. Evaluation of Ligand Activity Based on Capacity to Displace ^125I-Thyroxine (T4) from TTR in Buffer/Human Plasma 3.1 Displacement of ^125I-T4 from Isolated Wild Type TR.
Competition of ligands with T4 for binding by TTR was assayed quantitatively by a previously described procedure (Kolstoe et al., 2010). Briefly, a solution of 125 nM TTR in 0.1 M Tris-HCl, 0.1 M NaCl and 0.001 M EDTA buffer, pH 8.0, was incubated overnight at 4° C. in the presence of 1.07 nM ^125I T4 (1,200 μCi/μg, 200 μCi/ml, Perkin Elmer) and increasing concentrations of inhibitor (0-5 μM) in 40 μl final volume. ^125I T4 bound by TTR was separated from unbound T4 by gel filtration chromatography using Micro Bio Spin 6 columns (Bio-Rad) previously equilibrated with the reaction buffer containing 1% w/v BSA. After counting with a Wizard2 gamma counter (Perkin-Elmer) for 60 s, percentage binding was plotted against the logarithm of the inhibitor concentration, and D50 (concentration of ligand reducing the binding of T4 by TTR by 50%) was determined using a four parameters dose-response curve with GraphPad Prism 5 (Table 1).

[2] = target: T3, TTR in whole human plasma (Homo sapiens, UniProt P02766); assay: Displacement of 125I-T4 from TTR in normal human plasma; format: binding; conditions: wild type TTR, 30 min 37° C. with ligand, immunoprecipitation, mean of at least 3 replicates; for IC50: read-out: D50 plasma
T3 construct: TTR in whole plasma, from individuals homozygous for wild type TTR; from tissue; host or cells: whole human plasma
Experimental: 3.2 Displacement of ^125-T4 from TTR in Normal Human Plasma.
The displacement of ^125I-T4 from TTR in whole plasma, from individuals homozygous for wild type TTR, was studied by incubating plasma with each ligand at increasing concentrations for 30 min at 37° C., further incubation with […] followed by measurement of the radioactivity in the immunoprecipitate obtained with anti-TTR antibodies. […] Percentage binding was plotted against the logarithm of the inhibitor concentration, and D50 (concentration of ligand reducing the binding of T4 by TTR by 50%) was determined using a four parameter dose-response curve with GraphPad Prism 5 (Table 1).

[3] = target: T1, recombinant Val122Ile TTR; assay: Mechano-enzymatic fibrillogenesis, TTR aggregation by turbidity at 400 nm; format: biochemical; conditions: equimolar ligand, Val122Ile TTR 9 μM, trypsin, 96 h, 100 % = protein without ligand, mean (SD)
Experimental: as §1

% Aggregation (Fluorescence method) [1] | IC50 (isolated wild type TTR) | IC50 [2] | % Aggregation (Turbidity method) [3] | D50 plasma [2] | D50 buffer (isolated wild type TTR) | % Aggregation (Fluorescence method) ([1]; listed as T-663 (B3)) | % Aggregation (Turbidity method) ([3]; listed as T-663 (B3)) | SMILES
19.2 (13.0) % | 80 nM | 3600 nM | 7.62 (3.39) % | – | – | – | – | O=C(O)CCc1cc(Cl)c(OCCOCCCOc2c(Cl)cc(-c3nc4ccc(C(=O)O)cc4o3)cc2Cl)c(Cl)c1 [Compound B29, 2-[4-[3-[2-[4-(2-carboxyethyl)-2,6-dichloro-phenoxy]ethoxy]propoxy]-3,5-dichloro-phenyl]-1,3-benzoxazole-6-carboxylic acid]
11.7 (3.67) % | 2060 nM | – | 6.35 (2.73) % | no binding | – | – | – | O=C(O)CCc1cc(Cl)c(OCOCCCOc2c(Cl)cc(Nc3ccccc3C(=O)O)cc2Cl)c(Cl)c1 [Compound B8, 2-[4-[3-[[4-(2-carboxyethyl)-2,6-dichloro-phenoxy]methoxy]propoxy]-3,5-dichloro-anilino]benzoic acid]
15.5 (3.25) % | 70 nM | 6400 nM | 6.43 (2.12) % | – | – | – | – | O=C(O)CCc1ccc(OCC[C@@H](O)[C@H](O)CCOc2ccc(Nc3ccccc3C(=O)O)cc2Cl)c(Cl)c1 [Compound B22, 2-[4-[(3R,4R)-6-[4-(2-carboxyethyl)-2-chloro-phenoxy]-3,4-dihydroxy-hexoxy]-3-chloro-anilino]benzoic acid]
8.23 (2.61) % | 100 nM | 18400 nM | 4.99 (1.88) % | – | – | – | – | O=C(O)CCc1cc(Cl)c(OCCCOCCCOc2c(Cl)cc(-c3nc4ccc(C(=O)O)cc4o3)cc2Cl)c(Cl)c1 [Compound B7, 2-[4-[3-[3-[4-(2-carboxyethyl)-2,6-dichloro-phenoxy]propoxy]propoxy]-3,5-dichloro-phenyl]-1,3-benzoxazole-6-carboxylicacid]
9.34 (4.36) % | 1350 nM | – | 17.1 (0.66) % | no binding | – | – | – | Cc1n[nH]c(COCCCOCCCOc2c(Cl)cc(CCC(=O)O)cc2Cl)c1CCCOc1cc(C(=O)O)ccc1F [Compound B9, 3-[3-[5-[3-[3-[4-(2-carboxyethyl)-2,6-dichloro-phenoxy]propoxy]propoxymethyl]-3-methyl-1H-pyrazol-4-yl]propoxy]-4-fluorobenzoic acid]
8.54 (6.10) % | 70 nM | 7000 nM | 11.6 (8.30) % | – | – | – | – | O=C(O)CCc1cc(Cl)c(OCC[C@@H](O)[C@H](O)CCOc2ccc(Nc3ccccc3C(=O)O)cc2Cl)c(Cl)c1 [Compound B20, 2-[4-[(3R,4R)-6-[4-(2-carboxyethyl)-2,6-dichloro-phenoxy]-3,4-dihydroxy-hexoxy]-3-chloro-anilino]benzoic acid]
75 (30) % | – | – | – | – | No binding | – | – | O=C(O)Cc1cc(Cl)c(OCCCOCCOc2c(Cl)cc(CC(=O)O)cc2Cl)c(Cl)c1 [Compound B33, reference compound]
24.5 (8.90) % | 80 nM | 20000 nM | 9.30 (4.32) % | – | – | – | – | O=C(O)CCc1cc(Cl)c(OCCCOCCOc2c(Cl)cc(-c3nc4ccc(C(=O)O)cc4o3)cc2Cl)c(Cl)c1 [Compound B28, 2-[4-[2-[3-[4-(2-carboxyethyl)-2,6-dichloro-phenoxy]propoxy]ethoxy]-3,5-dichloro-phenyl]-1,3-benzoxazole-6-carboxylic acid]
– | 70 nM | 1700 nM | – | – | – | 4.49 (2.08) % | 5.11 (1.58) % | O=C(O)CCc1cc(Cl)c(OCC[C@@H](O)[C@H](O)CCOc2c(Cl)cc(Nc3ncccc3C(=O)O)cc2Cl)c(Cl)c1 [Compound B3, 2-[4-[(3R,4R)-6-[4-(2-carboxyethyl)-2,6-dichloro-phenoxy]-3,4-dihydroxy-hexoxy]-3,5-dichloro-anilino]pyridine-3-carboxylic acid]
– | 500 nM | – | – | no binding | – | – | – | Cc1n[nH]c(COCCOCCCOc2c(Cl)cc(CCC(=O)O)cc2Cl)c1CCCOc1cc(C(=O)O)ccc1F [Compound B11, 3-[3-[5-[2-[3-[4-(2-carboxyethyl)-2,6-dichloro-phenoxy]propoxy]ethoxymethyl]-3-methyl-1H-pyrazol-4-yl]propoxy]-4-fluoro-benzoic acid]
12.0 (4.44) % | 1170 nM | 39700 nM | 6.24 (1.71) % | – | – | – | – | O=C(O)CCOCCCOCCCOCCCOc1c(Cl)cc(Nc2ccccc2C(=O)O)cc1Cl [Compound B6, 2-[4-[3-[3-[3-(2-carboxyethoxy)propoxy]propoxy]propoxy]-3,5-dichloro-anilino]benzoic acid]
12.6 (3.17) % | – | – | 5.73 (0.50) % | – | – | – | – | O=C(O)CCc1cc(Cl)c(OCC/C=C/CCOc2c(Cl)cc(Nc3ccccc3C(=O)O)cc2Cl)c(Cl)c1 [Compound B14, 2-[4-[(E)-6-[4-(2-carboxyethyl)-2,6-dichloro-phenoxy]hex-3-enoxy]-3,5-dichloro-anilino]benzoic acid]
8.31 (6.09) % | 70 nM | 4100 nM | 6.43 (3.09) % | – | – | – | – | O=C(O)CCc1ccc(OCC[C@@H](O)[C@H](O)CCOc2c(Cl)cc(Nc3ccccc3C(=O)O)cc2Cl)c(Cl)c1 [Compound B21, 2-[4-[6-[4-(2-carboxyethyl)-2-chloro-phenoxy]-3,4-dihydroxy-hexoxy]-3,5-dichloro-anilino]benzoic acid]
28.8 (13.4) % | 4600 nM | 66400 nM | 17.3 (14.8) % | – | – | – | – | O=C(O)COCCOCCOCCOc1c(Cl)cc(Nc2ccccc2C(=O)O)cc1Cl [Compound B5, 2-[4-[2-[2-[2-(carboxymethoxy)ethoxy]ethoxy]ethoxy]-3,5-dichloro-anilino]benzoic acid]
8.63 (5.17) % | – | – | 5.76 (2.32) % | – | – | – | – | O=C(O)CCc1cc(Cl)c(OCC[C@H](O)[C@@H](O)CCOc2c(Cl)cc(Nc3ncccc3C(=O)O)cc2Cl)c(Cl)c1 (stereo in doubt) [Compound B3A, 2-[4-[(3S,4S)-6-[4-(2-carboxyethyl)-2,6-dichloro-phenoxy]-3,4-dihydroxy-hexoxy]-3,5-dichloro-anilino]pyridine-3-carboxylicacid]
9.76 (4.50) % | – | – | 5.31 (0.62) % | – | – | – | – | O=C(O)CCc1cc(Cl)c(OCC/C=C/CCOc2c(Cl)cc(Nc3ncccc3C(=O)O)cc2Cl)c(Cl)c1 [Compound B13, (E)-2-((4-((6-(4-(2-carboxyethyl)-2,6-dichlorophenoxy)hex-3-en-1-yl)oxy)-3,5-dichlorophenyl)amino)nicotinic acid]

Reference: US20230357134A1, “AGENTS FOR USE IN THE TREATMENT OF AMYLOIDOSIS” (UCL BUSINESS LTD, priority 2020, published 2023)
